Test results as given in patent publication US20080262082A1, “COMPOSITION CONTAINING S-(-)-TULIPALIN B OR ACETYLATED-S-(-)-TULIPALIN B” (BIO SPECTRUM, INC., priority 2007, published 2008).

Legend:
Assay type in all cases: cell-based
[1] = test system: Staphylococcus aureus KCTC 1916; experiment: MIC by broth dilution method; conditions: S. aureus, 37° C., 24 hours
[2] = test system: Escherichia coli KCTC 1039; experiment: MIC by broth dilution method; conditions: E. coli, 37° C., 24 hours
[3] = test system: Salmonella typhimurium KCTC 2514; experiment: MIC by broth dilution method; conditions: S. typhimurium, 37° C., 24 hours
[4] = test system: Salmonella enteritidis KCTC 12400; experiment: MIC by broth dilution method; conditions: S. enteritidis, 37° C., 24 hours
[5] = test system: Vibrio parahaemolyticus KCTC 27; experiment: MIC by broth dilution method; conditions: V. parahaemolyticus, 37° C., 24 hours
[6] = test system: 18 species of pathogenic bacteria (aerobic); experiment: Agar diffusion antibacterial test, overall (aerobic); conditions: all kinds of bacteria (aerobic); treatment concentration of 1.0%
[7] = test system: 8 anaerobic bacterial species; experiment: Agar diffusion antibacterial test, overall (anaerobic); conditions: anaerobic bacteria; concentration of 1.0%

MIC [1] [%]	MIC [2] [%]	MIC [3] [%]	MIC [4] [%]	SMILES	MIC [5] [%]	Antibacterial effects [6]	Antibacterial activity [7]
0.03	0.005	0.02	0.01	O=C1C(N(CO)C(=O)NCO)N(CO)C(=O)N1CO (stereo not drawn) [Germall II]	0.02	–	–
–	–	–	–	C=C1C(=O)OC[C@@H]1O [R-(+)-tulipalin B, (4R)-4-hydroxy-3-methylene-oxolan-2-one, reference compound]	–	no antibacterial effects	no antibacterial activity
0.04	0.01	0.03	0.01	C/C=C/C=C/C(=O)O [Sorbic acid, reference compound]	0.03	–	–
